What was measured:
D(3) dopamine receptor [1] = target: D(3) dopamine receptor (Homo sapiens, UniProt P35462); experiment: Displacement of [3H]N-methylspiperone from human dopamine D3 receptor expressed in HEK293 cells after 1 hr by liquid scintillation counting analysis
D(2) dopamine receptor = D(2) dopamine receptor (Homo sapiens, UniProt P14416); experiment: Displacement of [3H]N-methylspiperone from human dopamine D2 receptor expressed in HEK293 cells after 1 hr by liquid scintillation counting analysis
D(3) dopamine receptor [2] = target: D(3) dopamine receptor (Rattus norvegicus, UniProt P19020); experiment: Displacement of [3H]R-(+)-7-OHDPAT from dopamine D3 receptor in Sprague-Dawley rat ventral striatum after 90 mins
Sequence of D(3) dopamine receptor (Rattus norvegicus, UniProt P19020) (P19020 whole entry): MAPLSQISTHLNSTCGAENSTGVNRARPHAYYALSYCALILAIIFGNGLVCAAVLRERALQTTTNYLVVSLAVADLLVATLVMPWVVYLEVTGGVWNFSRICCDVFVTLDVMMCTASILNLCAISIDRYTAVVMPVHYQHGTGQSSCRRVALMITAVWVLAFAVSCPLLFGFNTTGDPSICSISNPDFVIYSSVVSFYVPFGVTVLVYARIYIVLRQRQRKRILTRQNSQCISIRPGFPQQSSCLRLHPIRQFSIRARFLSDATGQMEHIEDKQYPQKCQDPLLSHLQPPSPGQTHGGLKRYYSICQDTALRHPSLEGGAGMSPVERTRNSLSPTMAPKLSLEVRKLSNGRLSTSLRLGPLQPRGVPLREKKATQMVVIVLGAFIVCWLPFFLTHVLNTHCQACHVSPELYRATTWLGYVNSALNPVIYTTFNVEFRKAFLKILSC

Sequence of D(3) dopamine receptor (Homo sapiens, UniProt P35462) (P35462 as listed by the source): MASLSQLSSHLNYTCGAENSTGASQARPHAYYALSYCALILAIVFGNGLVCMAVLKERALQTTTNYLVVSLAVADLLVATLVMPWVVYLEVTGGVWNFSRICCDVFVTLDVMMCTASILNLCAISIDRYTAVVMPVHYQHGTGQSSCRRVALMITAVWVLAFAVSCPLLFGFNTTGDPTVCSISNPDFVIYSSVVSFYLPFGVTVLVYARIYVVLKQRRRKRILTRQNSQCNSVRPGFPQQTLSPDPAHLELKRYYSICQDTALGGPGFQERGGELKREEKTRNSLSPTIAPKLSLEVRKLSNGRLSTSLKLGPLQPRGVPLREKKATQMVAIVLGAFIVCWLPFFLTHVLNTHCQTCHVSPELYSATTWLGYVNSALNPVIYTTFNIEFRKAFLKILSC
Sequence of D(2) dopamine receptor (P14416 whole entry): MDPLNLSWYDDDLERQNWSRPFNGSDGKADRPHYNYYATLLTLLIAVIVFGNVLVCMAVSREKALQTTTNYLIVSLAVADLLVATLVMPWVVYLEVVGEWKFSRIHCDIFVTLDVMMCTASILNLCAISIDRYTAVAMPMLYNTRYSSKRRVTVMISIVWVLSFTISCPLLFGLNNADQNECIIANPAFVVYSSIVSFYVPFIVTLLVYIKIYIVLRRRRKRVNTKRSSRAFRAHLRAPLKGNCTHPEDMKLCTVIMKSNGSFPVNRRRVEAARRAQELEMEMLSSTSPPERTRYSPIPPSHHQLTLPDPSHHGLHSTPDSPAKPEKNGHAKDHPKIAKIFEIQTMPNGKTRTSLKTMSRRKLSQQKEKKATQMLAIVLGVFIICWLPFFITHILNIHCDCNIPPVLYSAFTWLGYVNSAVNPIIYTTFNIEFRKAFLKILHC

CCCN(CC[C@]1(O)C[C@@H](NC(=O)c2ccc3ccccc3c2)C1)[C@H]1C[C@@H]1c1cccc(Cl)c1
Ki (D(3) dopamine receptor [1]): 38 nM | Ki (D(2) dopamine receptor): 1220 nM | Ki (D(3) dopamine receptor [2]): 28 nM

CCCN(CC[C@]1(O)C[C@@H](NC(=O)c2ccc3ccccc3c2)C1)[C@H]1C[C@@H]1c1ccccc1Cl
Ki (D(3) dopamine receptor [1]): 22 nM | Ki (D(2) dopamine receptor): 923 nM | Ki (D(3) dopamine receptor [2]): 19 nM

CCCN(CC[C@]1(O)C[C@@H](NC(=O)c2ccc3ccccc3c2)C1)C1CC1c1ccc(Cl)cc1 (some centres undefined)
Ki (D(3) dopamine receptor [1]): 2.6 nM | Ki (D(2) dopamine receptor): 667 nM | Ki (D(3) dopamine receptor [2]): 4.6 nM
